# Test results reported in US12122756B2, “Biflavone compound against I-type herpes simplex virus, and preparation method therefor and use thereof” (priority 2022, dated 2024).
# Like-named read-outs stand apart in the source and are kept apart here. Marks after values point to notes of the source that are not given here.
# What was measured:
# [1] = system: HSV-I; assay: Cytopathic effect (CPE) assay: inhibition of pathological changes of Vero cells induced by HSV-I (CCK-8); type: cell-based, Herpes simplex virus type I; details: for inhibitory effect on HSV-I induced cytopathic changes (in words): CPE method; for Inhibition rate (%) / OD value: n = 5
# Procedure: (1) Determination of the inhibitory activities of the test drugs on pathological changes of Vero cells induced by HSV-I using the cytopathic effect (CPE) assay: Vero cells were seeded in a 96-well plate and grew into a monolayer the next day. 100TCID50 HSV-I was added to infect cells, and then the cell maintenance solution containing different concentrations of the test drug was replaced, and a cell control group was included. The cells were cultured in an incubator for 72 hours. Then, the inhibitory effect of the drug on virus-induced cytopathic changes was measured using the CCK-8 assay, and thus the 50% inhibiting concentration (IC50) of the drug was calculated.
# [2] = system: Vero cells; assay: Cytotoxic assay of tested drugs against Vero cells (CCK-8); type: cell-based, African green monkey; details: for highest non-toxic concentration: Vero cells, CCK-8
# Procedure: 3. Cytotoxic assay of tested drugs against Vero cells: Vero cells were seed in a 96 well plate at 3×10^4 cells/well. The next day, after growing into a monolayer, the test drug was diluted to obtain 8-9 concentrations and added to each well. Meanwhile, a normal control group was established, with 4 replicate wells for each group. After 72 hours, the toxicity of the test drug to Vero cells was measured using CCK-8 assay, and the highest non-toxic concentration and half toxic concentration (TC50) of the drug on the cells were calculated.
# [3] = Solubility (highest solubility used as starting concentration; water solubility)
# [4] = Concentration 1 (3 concentrations, 50% dilution based on highest non-toxic concentration)
# [5] = 1st (highest) concentration (971, 1600, 2620, 390 μg·ml^−1 for Compounds 1-4), 72 h
# [6] = 2nd concentration, 50% serial dilution from column-head concentration, 72 h
# [7] = 3rd concentration, 50% serial dilution from column-head concentration, 72 h
# [8] = 4th concentration, 50% serial dilution from column-head concentration, 72 h
# [9] = 5th concentration, 50% serial dilution from column-head concentration, 72 h
# [10] = 6th concentration, 50% serial dilution from column-head concentration, 72 h
# [11] = 7th concentration, 50% serial dilution from column-head concentration, 72 h
# [12] = 8th concentration, 50% serial dilution from column-head concentration, 72 h
# [13] = 9th concentration, 50% serial dilution from column-head concentration, 72 h
solubility [3],Compound,inhibitory effect on HSV-I induced cytopathic changes (in words) [1],"Inhibition rate (%) [1, 4]","OD value [1, 4]",Inhibition rate (%) ([1]; Concentration 2),OD value ([1]; Concentration 2),Inhibition rate (%) ([1]; Concentration 3),OD value ([1]; Concentration 3),"growth inhibition rate (%) on Vero cells [2, 5]","growth inhibition rate (%) on Vero cells [2, 6]","growth inhibition rate (%) on Vero cells [2, 7]","growth inhibition rate (%) on Vero cells [2, 8]","growth inhibition rate (%) on Vero cells [2, 9]","growth inhibition rate (%) on Vero cells [2, 10]","growth inhibition rate (%) on Vero cells [2, 11]","growth inhibition rate (%) on Vero cells [2, 12]","growth inhibition rate (%) on Vero cells [2, 13]","TC50 on Vero cells ([2]; 72 h, CCK-8, Probit regression)",highest non-toxic concentration ([2]; 72 h),TC50 on Vero cells [2]
390 µg/mL,"CCOc1ccc(-c2coc3c(Cc4c(OCC)c(OC)c(O)c5c(=O)c(-c6ccc(OCC)c(S(=O)(=O)[O-])c6)coc45)c(OCC)c(OC)c(O)c3c2=O)cc1S(=O)(=O)[O-].[Na+].[Na+] [Compound 4, sodium 8,8″-methylene-di-(4,7′-diethyltectorigenin-5′-sulphonate)]",no significant inhibitory effect,5.96%,0.32 ± 0.02,6.09%,0.32 ± 0.01,5.99%,0.32 ± 0.01,28.40** %,27.54** %,26.53** %,23.48** %,22.02** %,18.43** %,14.94** %,9.42%,−23.23%,11308.7 µg/mL,0.864 µg/mL,
2620 µg/mL,"CCOc1ccc(-c2coc3cc(OCC)c(OC)c(O)c3c2=O)cc1S(=O)(=O)[O-].[Na+] [Compound 3, sodium 4,7′-diethyltectorigenin-5′-sulphonate]",no significant inhibitory effect,6.20%,0.38 ± 0.05,8.65%,0.39 ± 0.10,4.09%,0.37 ± 0.03,45.06** %,40.80** %,36.94** %,34.23** %,32.36** %,27.12** %,25.55** %,22.06** %,−0.24%,3020.44 µg/mL,3.496 µg/mL,
,"COc1c(O)cc2occ(-c3ccc(O)c(S(=O)(=O)[O-])c3)c(=O)c2c1O.[Na+] [Compound 1, sodium tectorigenin-5′-sulphonate]",the effect was not significant,4.41%,0.37 ± 0.04,3.29%,0.37 ± 0.02,2.26%,0.36 ± 0.03,57.86** %,49.99** %,42.06** %,39.97** %,34.95** %,28.48** %,27.14** %,25.37** %,−1.57%,,,390.312 µg/mL
